Like-named read-outs stand apart in the source and are kept apart here.
Experiments:
[1] = tested on: patients with HF and LVEF ≥40%; assay: […]-HF (Example 2) health status: KCCQ-TSS, NYHA class, EQ-5D-5L; format: in vivo, human; details: adjusted for baseline value, geographic region
Experimental: Kansas City Cardiomyopathy Questionnaire (KCCQ) is a standardized patient reported outcomes (PRO) questionnaire which assesses symptoms, physical and social limitations, and quality of life in patients with heart failure (HF). Patients are asked to recall how their HF impacted their life over a 2-week recall period.
Total HF events was analyzed using an LWYY model in a similar fashion to the primary endpoint. The percentage of participants with improvement in NYHA class from Baseline to Month 12, was analyzed with a logistic regression model including factors for treatment group and stratification levels. Patients that died or are lost to follow-up at month 12 was considered to had not improved. The absolute change from baseline including measurements up to Month 12 of the TSS of the KCCQ, was analyzed by a repeated measures mixed model including the factors treatment group, baseline, visit, baseline-by-visit interaction, and factors for the stratification levels. The comparison assumed a common treatment effect across Month 6, 9 and 12. […] The composite renal endpoint and all-cause mortality was analyzed using a stratified log-rank test for testing and a stratified Cox proportional hazards model for obtaining a point estimate with 95% confidence interval. […]

[2] = tested on: patients with heart failure and a left ventricular ejection fraction ≥40%
[3] = cited from earlier work
[4] = tested on: participants with chronic kidney disease and Type-2 diabetes; details: cited from earlier work
[5] = tested on: preclinical cardiorenal models; details: preclinical cardiorenal models which develop heart failure; cited from earlier work
[6] = tested on: natriuretic peptide levels; details: ARTS-HF trial, phase 2; cited from earlier work
[7] = tested on: patients across cardio-kidney-metabolic disease states
[8] = No SGLT2i Use at baseline, n = 2,610
[9] = SGLT2i Use at baseline, n = 393
[10] = FINE-HEART pooled safety population, finerenone n = 9,482, treatment-emergent
[11] = FINE-HEART pooled safety population, n = 9,482
[12] = FINE-HEART pooled, n = 9,482, investigator reported adverse events

## CCOc1ncc(C)c2c1[C@H](c1ccc(C#N)cc1OC)C(C(N)=O)=C(C)N2 [finerenone, (4S)-4-(4-cyano-2-methoxyphenyl)-5-ethoxy-2,8-dimethyl-1,4-dihydro-1,6-naphthyridine-3-carboxamide]
[1]; bilirubin Tertile 2 0.5-0.6 mg/dL
  Change in KCCQ-TSS from baseline to 12 months, difference in mean (95% CI) finerenone vs placebo: 0.69 (−0.92 to 2.30)
[1]; bilirubin Tertile 3 ≥0.7 mg/dL
  Change in KCCQ-TSS from baseline to 12 months, difference in mean (95% CI) finerenone vs placebo: 3.15 (1.52 to 4.77)
[2]; HFimpEF (history of LVEF<40%)
  Absolute risk reduction, primary outcome: 9.2 per 100 py
[2]; LVEF consistently 40% (no HFimpEF)
  Absolute risk reduction, primary outcome: 2.5 per 100 py
[2]; No SGLT2i Use at baseline
  All-cause death, HR (95% CI) finerenone vs placebo: 0.94 (0.82, 1.07)
  Renal composite endpoint, HR (95% CI) finerenone vs placebo: 1.43 (0.98, 2.08)
  Total worsening HF events, RR (95% CI) finerenone vs placebo: 0.83 (0.71, 0.97)
[2]; [8]
  Renal composite endpoint, Rate (per 100 py): 0.8 per 100 py
  Total worsening HF events, Rate (per 100 py): 13.0 per 100 py
[2]; SGLT2i Use at baseline
  All-cause death, HR (95% CI) finerenone vs placebo: 0.90 (0.64, 1.27)
[2]; [9]
  Renal composite endpoint, Rate (per 100 py): 1.3 per 100 py
  Total worsening HF events, Events: 194
  Total worsening HF events, Rate (per 100 py): 22.0 per 100 py
[2]; at 6 months
  Mean systolic blood pressure lower than in the placebo group: 3.4 mm Hg
[2]; bilirubin Tertile 2 0.5-0.6 mg/dL, finerenone N = 970
  All-cause death, event rate per 100 PY: 6.4 per 100 PY
[2]; bilirubin Tertile 3 ≥0.7 mg/dL, finerenone N = 1,009
  All-cause death, event rate per 100 PY: 6.6 per 100 PY
[2]; both, human, in vivo
  Hyperkalemia leading to Hospitalization - no.: 24
  Number of subjects with a treatment-emergent SAE: Acute kidney injury: 54
  Number of subjects with a treatment-emergent SAE: Anaemia: 34
  Number of subjects with a treatment-emergent SAE: Angina pectoris: 17
  Number of subjects with a treatment-emergent SAE: Angina unstable: 38
  Number of subjects with a treatment-emergent SAE: Atrial fibrillation: 77
  Number of subjects with a treatment-emergent SAE: Cardiac failure: 18
  Number of subjects with a treatment-emergent SAE: Cellulitis: 17
  Number of subjects with a treatment-emergent SAE: Chest pain: 23
  Number of subjects with a treatment-emergent SAE: Chronic obstructive pulmonary disease: 18
  Number of subjects with a treatment-emergent SAE: Fall: 15
  Number of subjects with a treatment-emergent SAE: Femur fracture: 15
  Number of subjects with a treatment-emergent SAE: Gastrointestinal haemorrhage: 17
  Number of subjects with a treatment-emergent SAE: Hyperkalemia: 19
  Number of subjects with a treatment-emergent SAE: Pneumonia: 87
  Number of subjects with a treatment-emergent SAE: Syncope: 25
  Number of subjects with treatment-emergent AE leading to treatment discontinuation: Asthenia: 5
  Number of subjects with treatment-emergent AE leading to treatment discontinuation: Diarrhoea: 4
  Number of subjects with treatment-emergent AE leading to treatment discontinuation: Dyspnoea: 3
  Number of subjects with treatment-emergent AE leading to treatment discontinuation: Hyperkalaemia: 12
  Number of subjects with treatment-emergent AE leading to treatment discontinuation: Hypotension: 3
  Number of subjects with treatment-emergent AE leading to treatment discontinuation: Nausea: 3
  Number of subjects with treatment-emergent AE leading to treatment discontinuation: Renal impairment: 5
  Proportion of patients experiencing 15% decline in eGFR: 20.6%
  Subjects with a treatment-emergent SAE (%): Acute kidney injury: 1.8%
  Subjects with a treatment-emergent SAE (%): Anaemia: 1.1%
  Subjects with a treatment-emergent SAE (%): Angina pectoris: 0.6%
  Subjects with a treatment-emergent SAE (%): Angina unstable: 1.3%
  Subjects with a treatment-emergent SAE (%): Atrial fibrillation: 2.6%
  Subjects with a treatment-emergent SAE (%): Cardiac failure: 0.6%
  Subjects with a treatment-emergent SAE (%): Cellulitis: 0.6%
  Subjects with a treatment-emergent SAE (%): Chest pain: 0.8%
  Subjects with a treatment-emergent SAE (%): Chronic obstructive pulmonary disease: 0.6%
  Subjects with a treatment-emergent SAE (%): Coronary artery disease: 0.7%
  Subjects with a treatment-emergent SAE (%): Fall: 0.5%
  Subjects with a treatment-emergent SAE (%): Femur fracture: 0.5%
  Subjects with a treatment-emergent SAE (%): Gastrointestinal haemorrhage: 0.6%
  Subjects with a treatment-emergent SAE (%): Hyperkalemia: 0.6%
  Subjects with a treatment-emergent SAE (%): Pneumonia: 2.9%
  Subjects with a treatment-emergent SAE (%): Syncope: 0.8%
  Subjects with treatment-emergent AE leading to treatment discontinuation (%): Asthenia: (0.2%)
  Subjects with treatment-emergent AE leading to treatment discontinuation (%): Diarrhoea: (0.1%)
  Subjects with treatment-emergent AE leading to treatment discontinuation (%): Dyspnoea: (0.1%)
  Subjects with treatment-emergent AE leading to treatment discontinuation (%): Hyperkalaemia: (0.4%)
  Subjects with treatment-emergent AE leading to treatment discontinuation (%): Hypotension: (0.1%)
  Subjects with treatment-emergent AE leading to treatment discontinuation (%): Nausea: (0.1%)
  Subjects with treatment-emergent AE leading to treatment discontinuation (%): Renal impairment: (0.2%)
  Systolic blood pressure <100 mm Hg - no.: 538
[2]; by one month, compared with placebo
  Systolic BP, mean difference: −2.8 mm Hg
[2]; early after randomization
  Change in bilirubin during follow-up: sustained reduction in bilirubin
[2]; finerenone group
  Change in KCCQ clinical summary score at 6, 9 and 12 mo (least squares mean change): +8.0 ± 0.3
  Death from any cause - %: (16.4%)
  First worsening heart failure event or death from cardiovascular causes - %: (20.8%)
  Improvement in NYHA class from baseline to 12 mo - %: (18.6%)
  Kidney composite outcome - %: (2.5%)
[2]; finerenone group N = 3,003
  Death from cardiovascular causes - %: (8.1%)
[2]; n = 2,993
  Number of subjects with AE of death or leading to death: COVID-19: 7
  Number of subjects with AE of death or leading to death: COVID-19 pneumonia: 9
  Number of subjects with AE of death or leading to death: Cardiac arrest: 12
  Number of subjects with AE of death or leading to death: Cardiac failure: 6
  Number of subjects with AE of death or leading to death: Death: 70
  Number of subjects with AE of death or leading to death: Lung neoplasm malignant: 7
  Number of subjects with AE of death or leading to death: Pneumonia: 27
  Number of subjects with AE of death or leading to death: Respiratory failure: 7
  Number of subjects with AE of death or leading to death: Sepsis: 19
  Number of subjects with AE of death or leading to death: Septic shock: 12
  Number of subjects with AE of death or leading to death: Sudden cardiac death: 18
  Number of subjects with AE of death or leading to death: Sudden death: 20
  Number of subjects with a treatment-emergent SAE: COVID-19: 69
  Number of subjects with a treatment-emergent SAE: COVID-19 pneumonia: 28
  Number of subjects with a treatment-emergent SAE: Death: 29
  Number of subjects with a treatment-emergent SAE: Sepsis: 25
  Number of subjects with a treatment-emergent SAE: Sudden death: 16
  Number of subjects with a treatment-emergent SAE: Urinary tract infection: 29
  Subjects with AE of death or leading to death (%): COVID-19: (0.2%)
  Subjects with AE of death or leading to death (%): COVID-19 pneumonia: (0.3%)
  Subjects with AE of death or leading to death (%): Cardiac arrest: (0.4%)
  Subjects with AE of death or leading to death (%): Cardiac failure: (0.2%)
  Subjects with AE of death or leading to death (%): Death: (2.3%)
  Subjects with AE of death or leading to death (%): Lung neoplasm malignant: (0.2%)
  Subjects with AE of death or leading to death (%): Pneumonia: (0.9%)
  Subjects with AE of death or leading to death (%): Respiratory failure: (0.2%)
  Subjects with AE of death or leading to death (%): Sepsis: (0.6%)
  Subjects with AE of death or leading to death (%): Septic shock: (0.4%)
  Subjects with AE of death or leading to death (%): Sudden cardiac death: (0.6%)
  Subjects with AE of death or leading to death (%): Sudden death: (0.7%)
  Subjects with a treatment-emergent SAE (%): COVID-19: 2.3%
  Subjects with a treatment-emergent SAE (%): COVID-19 pneumonia: 0.9%
  Subjects with a treatment-emergent SAE (%): Death: 1.0%
  Subjects with a treatment-emergent SAE (%): Sepsis: 0.8%
  Subjects with a treatment-emergent SAE (%): Sudden death: 0.5%
  Subjects with a treatment-emergent SAE (%): Urinary tract infection: 1.0%
[2]; through the end of study
  Hyperkalemia leading to Death - %: (0%)
  Hyperkalemia leading to Death - no.: 0
[2]; treatment emergent
  Hyperkalemia leading to Death - %: (0%)
  Hyperkalemia leading to Death - no.: 0
[3]; compared with steroidal mineralocorticoid receptor antagonists
  tissue distribution between the heart and kidney: more balanced
[3]; in vivo
  renal elimination: less than 1%
[4]
  cardiovascular events, including heart failure hospitalizations: reduced
  kidney disease progression: reduced
[5]
  systolic and diastolic function: improvement
[6]
  treatment effects on natriuretic peptide levels: dose dependent
[7]; FINE-HEART pooled safety population, finerenone n = 9,482
  Any adverse event leading to treatment discontinuation, % of patients: (5.4%)
[7]; [10]
  Any serious adverse event, % of patients: (34.6%)
  Any serious adverse event, number of patients: 3,283
[7]; [11]
  Acute kidney injury leading to hospitalization, % of patients: (1.5%)
  Acute kidney injury leading to hospitalization, number of patients: 143
  Acute kidney injury leading to treatment discontinuation, % of patients: (0.2%)
  Acute kidney injury leading to treatment discontinuation, number of patients: 15
  Acute kidney injury, % of patients: (3.6%)
  Gynecomastia or breast hyperplasia, % of patients: (0.2%)
  Gynecomastia or breast hyperplasia, number of patients: 16
  Systolic blood pressure<100 mmHg, % of patients: (11.1%)
  Systolic blood pressure<100 mmHg, number of patients: 1,040
[7]; FINE-HEART pooled, n = 9,482, central laboratory measurements
  Any potassium >6.0 mmol/L, % of patients: (3.3%)
[7]; [12]
  Hyperkalemia leading to death, % of patients: (0.0%)
  Hyperkalemia leading to death, number of patients: 0
  Hyperkalemia leading to hospitalization, % of patients: (0.8%)
  Hyperkalemia leading to hospitalization, number of patients: 80
  Hyperkalemia leading to treatment discontinuation, % of patients: (1.3%)
  Hyperkalemia, % of patients: (12.8%)
  Hyperkalemia, number of patients: 1,216

Source: patent US20250313559A1 (Bayer Aktiengesellschaft, priority 2024, published 2025)
